We go through three molecules from PMC4402683, “FIBT versus florbetaben and PiB: a preclinical comparison study with amyloid-PET in transgenic mice” (EJNMMI Research, 2015).

One data set deals with Aβ plaques. Description: Small animal PET imaging in APP/PS1 tg and control mice (cortex + hippocampus-to-cerebellum PET ratio). The class given is in vivo, mouse. The conditions noted are these: for SUVRtg/SUVRctl (tg/ctl): ratio of APP/PS1 tg to control mice SUVR; for Mean PET ratio (SUVR ± SD), cortex + hippocampus to cerebellum: 36 to 45 min. The protocol: Inhalation anesthesia with isoflurane was used and the eyes of the animals were protected with dexpanthenol eye ointment. Anesthesia was initiated 15 min ahead of experiments by placing the animal in a cage ventilated with oxygen (3.5 L/min) containing 3% isoflurane. Throughout the experiments, anesthesia was maintained by adjusting the isoflurane content (0.6% to 2%) to ensure a respiratory rate in the range 80 to 100/min. For i.v. injection, we inserted a tailored catheter into the lateral tail vein. Simultaneously with a slow bolus injection of 50 to 200 μL of tracer solution, we started the PET with scan duration of 45 min in 3D list mode on a Siemens Inveon system (axial field-of-view of 12.7 cm with a bore diameter of 12 cm, approximately 1.4 mm full-width-at-half-maximum spatial resolution; Siemens Healthcare, Erlangen, Germany). After tracer injection, we flushed the catheter with 50 to 100 μL of isotonic sodium chloride solution. During the scan, a heating pad prevented hypothermia. The radioactivity in the syringe was measured immediately before and after injection with a Capintec CRC® 15R (Capintec Inc, 6 Arrow Road Ramsey, NJ, USA) dose calibrator.
Based on our experience, variance of macroscopic brain anatomy is very low across mice with the same genetic background. Therefore, the creation of a MRI template was done by manual co-registration of all MR images based on prominent brain structures and the overall cortical contour and calculation of a mean image (Pmod 3.3, Pmod Technologies, Zurich, Switzerland). Structures outside of the brain were not considered in the manual co-registration process. Two major volume-of-interests (VOIs) were defined on the MRI template, one comprising the full cortex including hippocampus, the other comprising the full cerebellum. The same VOIs were then used for reading out co-registered PET data of a mean image of the final 10 min of the scan (minute 36 to 45). The VOIs were chosen based on previous findings in a voxel-based analysis of cerebral PiB uptake and its correlation with the underlying Aβ pathology in this mouse model. PET data was normalized and corrected for decay and dead time. The images were reconstructed by means of filtered back-projection (FBP), using a ramp filter with a cutoff at the Nyquist frequency into 45 frames (45 × 60 s). The image volume consisted of 128 × 128 × 159 voxels, each of a size of 0.78 × 0.78 × 0.80 mm. The PET images were manually co-registered with the MRI template. This was done by using the wash-in phase of the tracer to identify the brain contour for alignment with the MRI template. We scaled the PET images to percentage of injected dose per cubic centimeter. We then applied these VOIs to the co-registered PET images and exported the VOI values to Microsoft Excel 2010 in order to calculate cortex + hippocampus-to-cerebellum ratios (further referred to as PET ratios).
We tested the tg/ctl ratios for significance. First, we performed a one-way ANOVA between the three groups showing significance.

For a further data set, the system named is Aβ deposits. Description: Ex vivo autoradiography, cortex/cerebellum uptake ratio. The class given is in vivo, mouse. The conditions noted are these: n ≥ 3. The protocol: In the present study, ex vivo autoradiography of [^18F]FIBT and [^18F]Florbetaben (Figure SI-1) were performed following a published procedure (Manook et al., 2012).
Figure SI-1. [^18F]FIBT and [^18F]Florbetaben autoradiography and cortex/ cerebellum uptake ratio (n≥ 3). Images of digital ex vivo autoradiography of a 12 µm thick axial section of age- and gender matched control (A and C) and APP/PS1 tg mouse brain (B and D). [^18F]FIBT (A and B), and [^18F]Florbetaben (C and D).

The target of data set [1] is Aβ aggregates. The conditions noted are these: post mortem AD brain homogenates; cited from earlier work.
Data set [2] deals with Aβ aggregates. The arrangement: method as in PMID 24900362. Particulars: versus [^3H]PiB; cited from earlier work.
Data set [3] can be described thus: Lipophilicity (log Doct/PBS) by partition between 1-octanol and PBS. It is filed as physicochemical. Particulars: 1-octanol/PBS pH 7.4, mean ± SD, N = 6. On the procedure:
Lipophilicity of the employed compounds was determined by a conventional partition method between 1-octanol and phosphate buffered saline (PBS), pH 7.4. The 1-octanol was saturated with PBS before use. Briefly, the no-carrier-added tracers, contained in 0.2 mL PBS, were added 0.2 mL of 1-octanol in a 1.5-mL polypropylene Eppendorf vial. The vial was sealed and vigorously shaken at room temperature for 5 min. The mixture was then centrifuged at 3,000 g for 10 min. A 100 μL aliquot from each of the two phases was drawn and their radioactivity content was determined in a NaI (Tl) well-type detector. The log Doct/PBS was calculated as follows: log Doct/PBS = log (radioactivity concentration in the 1-octanol phase/radioactivity concentration in the PBS phase). The reported values represent the mean of six independent measurements.

Data set [4] in a line: Ex vivo brain uptake studies in BALB/c mice. The arrangement: species or system mouse. The conditions noted are these: BALB/c mice without Aβ pathology, compared to [^18F]FIBT. On the procedure: Ex vivo brain uptake studies were performed in male BALB/c mice (mean ± SD body weight: 23 ± 2 g). […] Groups of mice were killed at 5 and 30 min p.i. Radioactivity of weighted brain samples was measured in a γ-counter (Wallac 1480-011 Automatic Gamma Counter, PerkinElmer, Waltham, MA, USA). Data are expressed as percent of the injected dose per gram tissue (% I.D./g; mean ± SD, N = 5).

The mark [5] stands for this setting: APP/PS1 tg mice (N = 4), 24-month-old.

Regarding `CNc1ccc(-c2nc3ccc(O)cc3s2)cc1` [[^11C]PiB, Pittsburgh compound B], the “SUVRtg/SUVRctl (tg/ctl)” value in the data set with Aβ plaques turned out to be 2.11 ± 0.24.

As usually defined, the Kd is the free concentration of one partner at which half of the binding sites on the other are occupied at equilibrium, for simple one-to-one binding. One may read the Ki as a measure of affinity in units of concentration, obtained from inhibition or displacement. On to `CNc1ccc(-c2cn3c(n2)sc2cc(OCC[18F])ccc23)cc1` [[^18F]FIBT, 2-(p-methylaminophenyl)-7-(2-[^18F]fluoroethoxy)imidazo[2,1-b]benzothiazole], for which the “Mean PET ratio (SUVR ± SD), cortex + hippocampus to cerebellum” value in the data set with Aβ plaques (setting [5]) is 1.68 ± 0.15; with Aβ plaques (C57BL6/J control mice (N = 3)), 0.95 ± 0.02. In addition, the “SUVRtg/SUVRctl (tg/ctl)” value in the data set with Aβ plaques is on record as 1.78 ± 0.16. Moreover, the Ctx/Clb ratio in the data set on Aβ deposits (APP/PS1 tg mouse brain) came to 4.7 ± 0.3; in the data set on Aβ deposits (Ctl mouse brain), 1.1 ± 0.1. For the same molecule, the Kd at Aβ aggregates [1] was 0.7 ± 0.2 nM. Moreover, at Aβ aggregates [2], the inhibition constant (Ki) was 2.1 ± 0.8 nM. Also, the “Log D oct/PBS” value in data set [3] is 1.92 ± 0.06.

As for `CNc1ccc(/C=C/c2ccc(OCCOCCOCCF)cc2)cc1` [[^18F]florbetaben, florbetaben], the “Mean PET ratio (SUVR ± SD), cortex + hippocampus to cerebellum” value was found to be 1.35 ± 0.06 in the data set with Aβ plaques (setting [5]) and 0.90 ± 0.01 with Aβ plaques (C57BL6/J control mice (N = 3)). Moreover, the “SUVRtg/SUVRctl (tg/ctl)” value in the data set on Aβ plaques turned out to be 1.50 ± 0.06. Moreover, the Ctx/Clb ratio with Aβ deposits (APP/PS1 tg mouse brain) was 2.0 ± 0.3; in the data set on Aβ deposits (Ctl mouse brain), 1.3 ± 0.1. The Kd on Aβ aggregates [1] is 6.7 ± 0.3 nM. The Initial brain uptake entry in data set [4] (5 min p.i.) was “lower initial uptake”. For the same molecule, the Brain tracer retention entry in data set [4] (30 min p.i.) was “higher tracer retention”. Moreover, in data set [3] (read-out: Log D oct/PBS), the logD at 5 min came to 1.58 ± 0.13.
